ChEMBL document CHEMBL3507680, “University of Dundee, Gates Library screen for HepG2 cell viability”

Test: Human HepG2 cell viability assay in 384 well format
Format: toxicity, cell-based
Set-up: dose 125 nL, time 70.5 hour; concentration not given beside the values
Conditions: HepG2 cells, read-out: Inhibition
In the case of `CNC(=O)C1CN(c2ccnc(C)n2)CCN(C2CCOCC2)C1` (stereo not given), the cytotoxicity at 70.5 h was -1.96%. Compound `CC[C@@H](CO)NC(=O)c1cc(COc2ccc(OC)cc2Cl)[nH]n1` has a cytotoxicity at 70.5 h of -3.92%. `Cc1cc(=O)n2ncnc2n1CC(O)c1cc(F)ccc1F` (stereo not given) gave a cytotoxicity at 70.5 h of -11.1%. With `C1CC(NCc2nc(C3CC3)no2)CN(Cc2noc(C3CC3)n2)C1` (stereo not given) the cytotoxicity at 70.5 h was 21.5%. `CC(C)C[C@H](NCc1cc(O)c2cccc(F)c2n1)C(N)=O` showed a cytotoxicity at 70.5 h of -11.8%. With `O=C(NCCCc1nc(=O)[nH][nH]1)Nc1ccc(Cl)cc1` the cytotoxicity at 70.5 h was -13.5%. Compound `CCN(CC)CCC(=O)NCc1cc2n(n1)CCN(C(=O)N(C)C)C2` has a cytotoxicity at 70.5 h of -11.8%. `CC(C(=O)Nc1ccc(N2CCCCC2)nc1)n1ccnc1` (stereo not given) showed a cytotoxicity at 70.5 h of 25.5%. `Cc1cc(NC(=O)CN2CCn3c(C)nnc3C2)no1` gave a cytotoxicity at 70.5 h of -7.43%. Compound `CNC(=O)[C@H]1C[C@@H]2CCN(Cc3ccc4c(c3)OCO4)C[C@@H]2O1` has a cytotoxicity at 70.5 h of -7.08%. `O=C([C@H]1C[C@H]2OCC[C@H]2N(CC2CCOCC2)C1)N1CCCCO1` gave a cytotoxicity at 70.5 h of -7.91%. `Cc1cccc(NC(=O)CNC(=O)c2ccccc2F)c1` showed a cytotoxicity at 70.5 h of 4.02%. `CC(=O)N1CCCC1C(=O)NCCOc1cccc(F)c1` (stereo not given) gave a cytotoxicity at 70.5 h of -12.8%. Work on `Cc1nn2c(N3CCC(C(N)=O)CC3)cc(-c3ccccc3)nc2c1C` yielded a cytotoxicity at 70.5 h of -2.04%. `O=C(c1ccc(Br)o1)N1CCCCC1Cn1cccn1` (stereo not given) gave a cytotoxicity at 70.5 h of -10.3%. In the case of `COc1c(CNC2CCN(C(C)(C)C)CC2)c(C(C)C)nn1C`, the cytotoxicity at 70.5 h was 3.99%. Work on `O=C(c1ccccn1)N1CCc2c(nc(N3CCCC3)[nH]c2=O)C1` yielded a cytotoxicity at 70.5 h of -1.38%. In the case of `CC(=O)Nc1nc(C(=O)N2CCCC(n3cncn3)C2)cs1` (stereo not given), the cytotoxicity at 70.5 h was -11.2%. `CN(C)c1nccc(CNS(=O)(=O)c2cc(Cl)cc(Cl)c2)n1` showed a cytotoxicity at 70.5 h of -1.35%. In the case of `CCOCc1cnc2n1CCN(C(=O)Cc1ccccn1)C2C` (stereo not given), the cytotoxicity at 70.5 h was -5.89%. `CCOC(C)c1nc(CN2CCN(c3ncc(C)cn3)CC2)cs1` (stereo not given) showed a cytotoxicity at 70.5 h of -5.09%. `Cc1cc(NC(=O)CCn2nc(C)c3ccccc32)n(C(C)C)n1` showed a cytotoxicity at 70.5 h of -18%. In the case of `CCN1N=C(C(=O)N2CCCC(c3nc(C)c(C)s3)C2)CCC1=O` (stereo not given), the cytotoxicity at 70.5 h was -0.596%. Work on `COc1cc(-c2nc(CN(CCO)CCO)c(C)o2)ccc1F` yielded a cytotoxicity at 70.5 h of 2.15%. In the case of `CCC(C(=O)N1CCS(=O)(=O)CC1)n1cccn1` (stereo not given), the cytotoxicity at 70.5 h was -4.81%. Compound `CC(CO)N(C)C(=O)c1cn(-c2ccc(Br)cc2)cn1` (stereo not given) has a cytotoxicity at 70.5 h of -7.34%. With `Cc1ccc(C)c(CC(=O)NC2CCCS(=O)(=O)C2)c1` (stereo not given) the cytotoxicity at 70.5 h was 6.95%. `Fc1ccc(CNc2ccccc2Cn2cncn2)cc1` gave a cytotoxicity at 70.5 h of -7.99%. In the case of `CCN(Cc1nonc1C)C(=O)c1cnccn1`, the cytotoxicity at 70.5 h was -8.37%. For `NC(=O)CN1CCC(C(=O)NCc2nc(-c3ccc(F)cc3)cs2)CC1`, the cytotoxicity at 70.5 h was -0.391%. Work on `CCN(CC1CCOCC1)C(=O)Cn1ccccc1=O` yielded a cytotoxicity at 70.5 h of -9.29%. In the case of `CCS(=O)(=O)N1CCCc2ccc(NC(=O)Cc3ccc(F)cc3)cc21`, the cytotoxicity at 70.5 h was 36.7%. Compound `O=S(=O)(NCC1(O)CCOCC1)c1ccccc1Br` has a cytotoxicity at 70.5 h of -0.33%. For `CCNC(=O)[C@@H]1C[C@H](N)CN1Cc1ccc(-c2ccccc2C#N)o1`, the cytotoxicity at 70.5 h was 9.56%. Work on `CCn1nc(C)cc1C(=O)N1CCC(Nc2ccc(C)nn2)CC1` yielded a cytotoxicity at 70.5 h of -85.5%. For `Cc1cc(Br)ccc1CNC(=O)C1(O)CCSCC1`, the cytotoxicity at 70.5 h was 9.16%. Work on `Cc1ccc(N2CCCC3(CCCC(=O)N3)C2)nn1` (stereo not given) yielded a cytotoxicity at 70.5 h of -5.66%. In the case of `OCC1(O)CCCN(Cc2noc(-c3ccccc3)n2)C1` (stereo not given), the cytotoxicity at 70.5 h was -10.2%. Work on `Cc1n[nH]c(CN2CCN(Cc3ccccc3)[C@@H]3CS(=O)(=O)C[C@@H]32)n1` yielded a cytotoxicity at 70.5 h of 0.0797%. In the case of `CCn1cc(-c2cc(C(F)(F)F)n(CCCN)n2)cn1`, the cytotoxicity at 70.5 h was 1.14%. In the case of `COCC(=O)N1CCCC1(C(=O)N(C)C)c1cnccn1` (stereo not given), the cytotoxicity at 70.5 h was -4.12%. With `CCc1c(C(=O)NCC2CCS(=O)(=O)C2)cnn1-c1ccc(C)cc1` (stereo not given) the cytotoxicity at 70.5 h was -20%. `CN(Cc1cncnc1)[C@H]1CN(CC2CC2)[C@@H]2CCCO[C@@H]21` gave a cytotoxicity at 70.5 h of -5.03%. In the case of `CCn1cc(CN2CCCC(c3[nH]ncc3-c3ccc(C)cc3)C2)cn1` (stereo not given), the cytotoxicity at 70.5 h was -16.8%. Compound `COC(=O)c1ccc(S(=O)(=O)N2CCCn3ncnc32)s1` has a cytotoxicity at 70.5 h of 0.743%. `CN(C)CCCNC(=O)c1cc(Cl)ccc1Cl` showed a cytotoxicity at 70.5 h of -14.5%. Compound `COC1CCCN(CCCc2cn[nH]c2)C1` (stereo not given) has a cytotoxicity at 70.5 h of 0.195%. Work on `COCc1nc2nc(O)c3c(n2n1)NC(=O)CC3c1ccc(SC)cc1` (stereo not given) yielded a cytotoxicity at 70.5 h of 1.29%. For `CN(Cc1ccco1)C(=O)C1CSCN1C(=O)c1cccnc1` (stereo not given), the cytotoxicity at 70.5 h was -15.1%. In the case of `CC(O)CN1CCC(CNCc2cn(-c3ccccc3)nn2)CC1` (stereo not given), the cytotoxicity at 70.5 h was -9.21%. For `Cc1cc(NCCc2nnc(N)s2)nc(-c2cccnc2)n1`, the cytotoxicity at 70.5 h was -6%. Work on `O=C(c1ccccc1)N1C[C@@H]2CCCO[C@@H]2[C@H](N2CCCC2)C1` yielded a cytotoxicity at 70.5 h of -4.22%. In the case of `CCOCC(=O)N1Cc2nccn2CC(CN2CCCC2)C1` (stereo not given), the cytotoxicity at 70.5 h was -11.5%. Compound `Cc1nc(S(=O)(=O)CCn2cccn2)n(C2CCCCC2)c1C` has a cytotoxicity at 70.5 h of -4.93%. Work on `CC(=O)NC(C)C1=CCCN(Cc2ccc(C(=O)O)cc2)C1` (stereo not given) yielded a cytotoxicity at 70.5 h of 2.27%. Compound `Cc1ccc(N2CCCN(C(=O)C(C(C)C)n3cncn3)CC2)nn1` (stereo not given) has a cytotoxicity at 70.5 h of 1.73%. In the case of `CC(=O)c1cccc(NC(=O)N(CCO)C2CCc3ccccc32)c1` (stereo not given), the cytotoxicity at 70.5 h was 26.8%. Compound `CC(C)(C)c1ccc2c(c1)CCN2C(=O)c1[nH]c(=O)[nH]c(=O)c1N` has a cytotoxicity at 70.5 h of -6.44%. `Cc1noc([C@@H]2C[C@H]3OCC[C@H]3N(CC3CCCC3)C2)n1` showed a cytotoxicity at 70.5 h of -10.4%. With `COc1ccccc1CC(=O)N(CCN1CCOCC1)Cc1ccco1` the cytotoxicity at 70.5 h was -1.43%. Work on `COc1cc(-c2ccc(F)c3c2OC(CN)C3)cc(OC)c1OC` (stereo not given) yielded a cytotoxicity at 70.5 h of 6.54%. With `Cc1c(C(=O)N2CC(C)(C)C2(C)C)nnn1-c1cccc2cnccc12` the cytotoxicity at 70.5 h was -2.78%. In the case of `Cc1cccc(C2(C(=O)NCC(C)CN3CCCC3=O)CC2)c1` (stereo not given), the cytotoxicity at 70.5 h was -11.5%. `Cn1cnc(S(=O)(=O)NCCN2CCCCCC2)c1Cl` showed a cytotoxicity at 70.5 h of 4.34%. `O=C(NC[C@H]1Cn2c(-c3ccccc3)cnc2CO1)C1CC1` gave a cytotoxicity at 70.5 h of -7.19%. `COc1cccc(OCC(=O)N2CCC3(CC2)[C@H](O)C[C@@H]3OC)c1` gave a cytotoxicity at 70.5 h of -5.93%. Work on `CC(=O)NCC(=O)N1CCOC2(CCCN(c3cccnc3)C2)C1` (stereo not given) yielded a cytotoxicity at 70.5 h of 14.8%. Work on `CC(c1nc(C2CC2)no1)N1CCN(Cc2ccccc2F)CC1` (stereo not given) yielded a cytotoxicity at 70.5 h of -6.67%. `CC(C)[C@H]1CN(c2ccncc2)C[C@@H]1NS(=O)(=O)N(C)C` showed a cytotoxicity at 70.5 h of -4.27%. `Cn1cnc2c1CCN(CCOc1ccc(C#N)cc1)C2` showed a cytotoxicity at 70.5 h of 1.67%. `CN(C)[C@@H]1CCN(c2ncccn2)[C@H]1Cc1ccccc1` gave a cytotoxicity at 70.5 h of -6.06%. For `CCCN(C(=O)CN1CCn2c(nnc2C2CC2)C1)C1=CCCCC1`, the cytotoxicity at 70.5 h was -13.5%. In the case of `CCN(Cc1ccco1)C(C)c1nc(C(C)C)no1` (stereo not given), the cytotoxicity at 70.5 h was -3.54%. `Cn1cc(N2CC[C@@H]3CN(Cc4ccncc4)C[C@H]3C2=O)cn1` gave a cytotoxicity at 70.5 h of 2.33%. `CC(C)NC(=O)c1cc2c([nH]c1=O)CC(c1cccs1)CC2=O` (stereo not given) gave a cytotoxicity at 70.5 h of 6.88%. Work on `COc1c(C2CCCN2C(=O)c2ccc3cc[nH]c3c2)c(C)nn1C` (stereo not given) yielded a cytotoxicity at 70.5 h of -2.48%. Work on `O=C(NCc1cccnc1)C1CN(c2cnc3ccccc3n2)CCN1` (stereo not given) yielded a cytotoxicity at 70.5 h of 19.1%. `Cc1cccc(CN2CC3(CCN(C(N)=O)CC3)OCC2=O)n1` showed a cytotoxicity at 70.5 h of -10.4%. Compound `c1cnc(NC[C@H]2OC[C@@H]3CCN(Cc4cccnc4)C[C@@H]32)nc1` has a cytotoxicity at 70.5 h of -12.6%. For `CC(O)c1cn(CC2CCN(C(=O)c3cccc(N(C)C)c3)CC2)nn1` (stereo not given), the cytotoxicity at 70.5 h was -4.18%.
